Source: patent publication US6773803B2, “Far-infrared emission powder with antibacterial activity and bio-wave steel plate coated with resin containing same” (Posco, priority 2000, dated 2004)

Assay: pH of aqueous solution after adding 30 g powder to 100 g water
Type: physicochemical
Conditions: powder dissolved in distilled water, result in words
Method: After the addition of the alkaline oxides or hydroxides, the aqueous solutions were measured for pH and the results are given in Table 1.

influence on the pH of the distilled water | SMILES
no influence on the pH | [O]=[Ti]=[O] [Material No. C. 1, TiO2]
no influence on the pH | [O]=[Al][O][Al]=[O] [Material No. C. 2, Al2O3]
no influence on the pH | O=[Si]=O [Material No. C. 3, SiO2]
